The source made the active and inactive calls. The rule behind the calls is not given here.
Assays:
[1] = biological target: T1, Nuclear receptor ROR-gamma (Homo sapiens) (UniProt P51449); test: Binding affinity to ROR-gamma LBD (265 to 507 residues)(unknown origin) assessed as increase in thermal stability by measuring change in melting temperature at 100 uM incubated for 2 hrs followed by heating at 20 to 90 degreeC by NanoDSF assay (reference value: 46.0 degreeC); conditions: filed as antagonist
T1 sequence (whole entry): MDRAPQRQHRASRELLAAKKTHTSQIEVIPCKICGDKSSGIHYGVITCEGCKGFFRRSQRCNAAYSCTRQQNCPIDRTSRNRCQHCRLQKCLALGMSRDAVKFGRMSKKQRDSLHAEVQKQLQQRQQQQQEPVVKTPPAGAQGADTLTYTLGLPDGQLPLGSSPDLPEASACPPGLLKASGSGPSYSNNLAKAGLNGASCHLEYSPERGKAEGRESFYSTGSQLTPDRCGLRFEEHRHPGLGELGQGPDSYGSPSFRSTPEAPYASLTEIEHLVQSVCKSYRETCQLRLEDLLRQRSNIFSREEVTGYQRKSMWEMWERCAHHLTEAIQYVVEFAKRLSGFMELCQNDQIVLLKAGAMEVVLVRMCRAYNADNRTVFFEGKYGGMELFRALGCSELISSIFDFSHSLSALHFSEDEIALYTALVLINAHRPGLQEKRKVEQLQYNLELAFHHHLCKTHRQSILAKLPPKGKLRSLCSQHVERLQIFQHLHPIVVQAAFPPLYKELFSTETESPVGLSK

[2] = biological target: T1, Nuclear receptor ROR-gamma (Homo sapiens); test: Binding affinity to ROR-gamma LBD (265 to 507 residues)(unknown origin) assessed as increase in thermal stability by measuring melting temperature at 100 uM incubated for 2 hrs followed by heating at 20 to 90 degreeC by NanoDSF assay (reference value: 46.0 degreeC); conditions: filed as antagonist
[3] = biological target: T1, Nuclear receptor ROR-gamma (Homo sapiens); test: Binding affinity to ROR-gamma LBD (unknown origin) assessed as protein stabilization by measuring reduction in hydrolysis rate incubated for 10 mins by SDS-PAGE analysis; conditions: filed as antagonist, dose <= 100.0 µM
[4] = biological target: T2, Nuclear receptor ROR-gamma (Homo sapiens, UniProt P51449); test: Antagonist activity at ROR-gamma LBD (unknown origin) using biotinylated SRC1-2 as substrate preincubated for 60 mins followed by substrate addition measured after 30 mins by HTRF assay
T2 sequence (P51449 whole entry): T1 sequence (whole entry)

[5] = biological target: T2, Nuclear receptor ROR-gamma; test: Binding affinity to ROR-gamma LBD (unknown origin) assessed as dissociation constant by ITC analysis
[6] = biological target: T2, Nuclear receptor ROR-gamma; test: Binding affinity to CM5 chip-immobilized recombinant ROR-gamma LBD (unknown origin) assessed as dissociation constant by SPR analysis
HPAF-II [7] = test: Antitumor activity against human HPAF-II cells measured after 72 hrs; assay type: functional, cell-based
HPAF-II [8] = test: Downregulation of retinol metabolism-related gene expression in human HPAF-II cells at 20 uM incubated for 24 hrs by KEGG analysis; assay type: functional, cell-based
HPAF-II [9] = test: Downregulation of drug metabolism-related gene expression in human HPAF-II cells at 20 uM incubated for 24 hrs by KEGG analysis; assay type: functional, cell-based
HPAF-II [10] = test: Downregulation of chemical carcinogenesis-related gene expression in human HPAF-II cells at 20 uM incubated for 24 hrs by KEGG analysis; assay type: functional, cell-based
HPAF-II [11] = test: Downregulation of cancer-related gene expression in human HPAF-II cells at 20 uM incubated for 24 hrs by KEGG analysis; assay type: functional, cell-based
HPAF-II [12] = test: Downregulation of retinol metabolism-related gene expression in human HPAF-II cells at 20 uM incubated for 24 hrs by GO analysis; assay type: functional, cell-based
HPAF-II [13] = test: Downregulation of lipid metabolism-related gene expression in human HPAF-II cells at 20 uM incubated for 24 hrs by GO analysis; assay type: functional, cell-based
HPAF-II [14] = test: Downregulation of cancer-related gene expression in human HPAF-II cells at 20 uM incubated for 24 hrs by GO analysis; assay type: functional, cell-based
HPAF-II [15] = test: Inhibition of MAPK signalling pathway in human HPAF-II cells at 20 uM incubated for 24 hrs by KEGG analysis; assay type: functional, cell-based
HPAF-II [16] = test: Inhibition of RAS signalling pathway in human HPAF-II cells at 20 uM incubated for 24 hrs by KEGG analysis; assay type: functional, cell-based
HPAF-II [17] = test: Effect on mTORC1 signalling pathway in human HPAF-II cells at 20 uM incubated for 24 hrs by KEGG analysis; assay type: functional, cell-based
HPAF-II [18] = test: Downregulation of phosphorylated MEK expression in human HPAF-II cells at 20 uM incubated for 48 hrs by Western blot analysis; assay type: functional, cell-based
HPAF-II [19] = test: Downregulation of phosphorylated ERK expression in human HPAF-II cells at 20 uM incubated for 48 hrs by Western blot analysis; assay type: functional, cell-based
HPAF-II [20] = test: Downregulation of phosphorylated AKT expression in human HPAF-II cells at 20 uM incubated for 48 hrs by Western blot analysis; assay type: functional, cell-based

Structure (SMILES): C=C(C)[C@@H]1CC[C@]2(C(=O)O)CC[C@]3(C)[C@H](CC[C@@H]4[C@@]5(C)CC[C@H](O)C(C)(C)[C@@H]5CC[C@]43C)[C@@H]12 [BETULINIC ACID]
- ΔTm [1]: 14.1 °C
- Tm [2]: 60.2 °C
- Activity [3]: Dose-Dependent Effect
- IC50 [4]: 2.2 µM
- Kd [5]: 3.39 µM
- Kd [6]: 2.7 µM
- IC50 (HPAF-II [7]): 12.5 µM
- Activity (HPAF-II [8]): Active
- Activity (HPAF-II [9]): Active
- Activity (HPAF-II [10]): Active
- Activity (HPAF-II [11]): Active
- Activity (HPAF-II [12]): Active
- Activity (HPAF-II [13]): Active
- Activity (HPAF-II [14]): Active
- inhibition (HPAF-II [15]): Active
- inhibition (HPAF-II [16]): Active
- Activity (HPAF-II [17]): Active
- Activity (HPAF-II [18]): Active
- Activity (HPAF-II [19]): Active
- Activity (HPAF-II [20]): Active

Reference: ChEMBL document CHEMBL5620362 (Eur J Med Chem, 2023)
